According to patent publication US11384062B2 (CombiPhos Catalysts, Inc., priority 2017, dated 2022):
Where two headings read alike, the source gives them in different places.

Assays:
[1] = dosed IV to bile duct cannulated rats; cited from earlier work
[2] = Metabolic stability in pooled rat liver microsomes; conditions: for Percent Remaining (%) 0 min / Percent Remaining (%) 5 min / Percent Remaining (%) 15 min / Percent Remaining (%) 30 min / Percent Remaining (%) 45 min / CLint scaled at 0.5 µM: rat liver microsomes; for CLint scaled at 0.5 µM / half-life at 0.5 µM: rat, pooled rat liver microsomes; for CLint scaled at 0.5 µM: pH 7.4, Clint; for half-life at 0.5 µM: pH 7.4, T1/2, rat liver microsomes
Experimental: Buffer solutions were prepared as follows: • a. Buffer A: 0.1 M monobasic potassium phosphate buffer containing 1.0 mM EDTA. • b. Buffer B: 0.1 M dibasic potassium phosphate buffer containing 1.0 mM EDTA. • c. Buffer C: 0.1 M potassium phosphate buffer containing 1.0 mM EDTA was adjusted to pH 7.4 by titrating 700 mL of Buffer B with Buffer A while monitoring with a pH meter. • 2. An NADPH stock solution (6 mM) was prepared by dissolving NADPH into Buffer C. • 3. Spiking solutions were prepared for the reference compound (ketanserin) and the test compounds as follows: • a. A 500 μM spiking solution of the reference compound (ketanserin) was generated by adding 10 μL of a 10 mM stock solution of ketanserin in DMSO into 190 μL acetonitrile. A 1.5 μM spiking solution in microsomes (0.75 mg/mL) was generated by adding 1.5 μL of the 500 μM spiking solution and 18.75 μL of 20 mg/mL rat liver microsomes into 479.75 μL of Buffer C while cooling with ice. • b. […] A 0.75 μM spiking solution in microsomes (0.75 mg/mL) was generated by adding 1.5 μL of the 250 μM spiking solution and 18.75 μL of 20 mg/mL rat liver microsomes into 479.75 μL of Buffer C while cooling with ice. • 4. 30 μL of 1.5 μM spiking solution containing 0.75 mg/mL microsomes solution was dispensed into assay plates designated for different time points (0 min, 5 min, 15 min, 30 min, and 45 min; or 0 min, 15 min, 30 min, 45 min, and 60 min as shown in Tables 1-5 below) while cooling with ice. • 5. For the 0 min time point assay plate, 135 μL of ACN containing IS followed immediately by 15 μL of the 6 mM NADPH stock solution were added to the wells of the 0 min assay plate. • 6. All assay plates other than the 0 min assay plate were pre-incubated at 37° C. for 5 min, and then 15 μL of the 6 mM NADPH stock solution was added to the wells of the assay plates to start the reaction and timing. At the appropriate time (5 min, 15 min, 30 min, 45 min, or 60 min), 135 μL of ACN containing IS was added to the wells of the corresponding assay plates, respectively, to stop the reaction. • 7. After quenching, the plates were shaken in a vibrator (IKA, MTS 2/4) for 10 min (600 rpm/min) and then centrifuged at 5594 g for 15 min (Thermo Multifuge×3R). • 8. After centrifugation, 50 μL of the supernatant from each well was transferred into a 96-well sample plate containing 50 μL of ultrapure water (Millipore, ZMQS50F01) for LC/MS analysis.

[3] = tested on: cancer cells with mutant BRCA-1 and BRCA-2; conditions: read-out: CC50, inhibition of proliferation; cited from earlier work
[4] = tested on: human tumor xenografts, p53 wild type and p53 mutant; conditions: variety of human tumor xenografts; cited from earlier work
[5] = tested on: BRCA-1 deficient cancer xenograft; conditions: cited from earlier work
PARP = conditions: read-out: EC50, inhibition of PARP activity; whole cell assay; cited from earlier work
recurrent ovarian cancer = conditions: cited from earlier work
[6] = tested on: CAPAN-1 pancreatic cancer cell xenograft; conditions: 80 mg/kg qd, oral dosing, for two, three, or four weeks; cited from earlier work

## NC(=O)c1cccc2cn(-c3ccc([C@@H]4CCCNC4)cc3)nc12 [[^14C]-niraparib]
[1]
  recovered radioactivity as the parent drug: 45%

## O=C(c1ccc(F)cc1)C1CCN(CCn2c(=O)[nH]c3ccccc3c2=O)CC1 [ketanserin]
[2]; Table 1 (Example 16)
  Percent Remaining (%) 0 min: 100.00%
  Percent Remaining (%) 5 min: 65.84%
  Percent Remaining (%) 15 min: 41.07%
  Percent Remaining (%) 30 min: 17.68%
  Percent Remaining (%) 45 min: 9.13%
  CLint scaled at 0.5 µM: 188 mL/min/kg
  half-life at 0.5 µM: 13.2 min
[2]; Table 2 (Example 17)
  Percent Remaining (%) 0 min: 100%
  Percent Remaining (%) 5 min: 94.13%
  Percent Remaining (%) 15 min: 61.07%
  Percent Remaining (%) 30 min: 32.18%
  Percent Remaining (%) 45 min: 21.24%
  CLint scaled at 0.5 µM: 142 mL/min/kg
  half-life at 0.5 µM: 17.5 min
[2]; Table 3 (Example 18)
  Percent Remaining (%) 0 min: 100.00%
  Percent Remaining (%) 5 min: 78.33%
  Percent Remaining (%) 15 min: 45.04%
  Percent Remaining (%) 30 min: 21.55%
  Percent Remaining (%) 45 min: 10.67%
  CLint scaled at 0.5 µM: 179 mL/min/kg
  half-life at 0.5 µM: 13.9 min
[2]; Table 4 (Example 19)
  Percent Remaining (%) 0 min: 100.00%
  Percent Remaining (%) 5 min: 78.33%
  Percent Remaining (%) 15 min: 45.04%
  Percent Remaining (%) 30 min: 21.55%
  Percent Remaining (%) 45 min: 10.67%
  CLint scaled at 0.5 µM: 179 mL/min/kg
  half-life at 0.5 µM: 13.9 min
[2]; Table 5 (Example 20)
  Percent Remaining (%) 0 min: 100.00%
  Percent Remaining (%) 5 min: 82.83%
  Percent Remaining (%) 15 min: 51.29%
  Percent Remaining (%) 30 min: 25.82%
  Percent Remaining (%) 45 min: 15.08%
  CLint scaled at 0.5 µM: 154 mL/min/kg
  half-life at 0.5 µM: 16.1 min

## NC(=O)c1cccc2cn(-c3ccc([C@@H]4CCCNC4)cc3)nc12 [niraparib, (S)-2-(4-(piperidin-3-yl)phenyl)-2H-indazole-7-carboxamide]
[3]
  CC50: 10 to 100 nM
[4]
  effect on radiation response: strongly enhances the effect of radiation
[5]; 80 mg/kg qd, oral dosing, after one or two weeks of treatment
  tumor growth: significant inhibition of tumor growth
[5]; after four week treatment
  tumor growth: complete and sustained regression
[5]; continuous daily dosing for three or four weeks
  tumor growth: tumor shrinkage
PARP
  EC50: […]
Recurrent ovarian cancer; germline BRCA mutant patients
  median PFS: 21.0 months
Recurrent ovarian cancer; non-gBRCAmut cohort, HRD-positive tumors
  median PFS: 12.9 months
Recurrent ovarian cancer; overall non-germline BRCA mutant cohort
  median PFS: 9.3 months
Recurrent ovarian cancer; patients
  discontinuation rate: 14.7%
  treatment-emergent grade 3/4 adverse event: anemia: 24.8%
  treatment-emergent grade 3/4 adverse event: neutropenia: 11.2%
  treatment-emergent grade 3/4 adverse event: thrombocytopenia: 28.3%
[6]
  tumor growth inhibition: ~60%
